Data as given in patent publication US9669095B2, “Cyclosporin analogues for preventing or treating hepatitis C infection” (Enanta Pharmaceuticals, Inc., priority 2014, dated 2017).
*1 amine or outer side, *2 acyl side, *3 side chain or, on linkers, in order; H or OH if unused. Where a SMILES comes first, the peptide text is derived from it. [ ]: non-standard residue; d: D form. X1 = C/C=C/C[C@@H](C)C1ON([*:1])[C@@H]1C(=O)[*:2]; X2 = CNCC(C)(C)[C@@H](C(=O)[*:2])N(C)[*:1]; NMeL = CN[C@@H](CC(C)C)C(=O)O; NMeV = CN[C@H](C(=O)O)C(C)C; dNMeA = CN[C@H](C)C(=O)O; Abu = CC[C@H](N)C(=O)O

System: HCV 1a genotype
Assay type: cell-based, hepatitis C virus
Details: Genotype-1a replicon, Luciferase assay, 72 hours

For `C/C=C/C[C@@H](C)C1ON2C(=O)[C@H](C(C)C)N(C)C(=O)[C@H](CC(C)C)N(C)C(=O)[C@H](CC(C)C)N(C)C(=O)[C@@H](C)NC(=O)[C@H](C)NC(=O)[C@H](CC(C)C)N(C)C(=O)[C@H](C(C)C)NC(=O)[C@H](C(C)(C)CNC)N(C)C(=O)[C@@H](C)N(C)C(=O)[C@H](CC)NC(=O)[C@H]12` (stereo partly shown) [Example 1] (cyclo(A[dA][NMeL][NMeL][NMeV][X1][Abu][dNMeA][X2]V[NMeL])), the EC50 was 10 to 100 nM.
